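Compound exposure: 48 hours, 5 concentrations, 96-well plates. At the GI50, growth is halved.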 Active and inactive are the calls of the source. Cut-off read from the data, not from the text of the source: active = GI50 up to about 1.1 µM and inactive = higher.
Assays:
Assay in all cases: NCI tumour cell line growth inhibition, 48 h
SF-295 = tested on: SF-295
SNB-75 = tested on: SNB-75
PC-3 = tested on: PC-3
IGROV-1 = tested on: IGROV-1
Malme-3M = tested on: Malme-3M
A498 = tested on: A498
NCI-H23 = tested on: NCI-H23
UO-31 = tested on: UO-31
SR = tested on: SR
NCI-H460 = tested on: NCI-H460
SF-268 = tested on: SF-268
RXF 393 = tested on: RXF 393
UACC-257 = tested on: UACC-257
TK-10 = tested on: TK-10
EKVX = tested on: EKVX
OVCAR-8 = tested on: OVCAR-8
MDA-MB-231 = tested on: MDA-MB-231
CAKI-1 = tested on: CAKI-1
A549 = tested on: A549
MCF7 = tested on: MCF7
COLO 205 = tested on: COLO 205
NCI-H522 = tested on: NCI-H522
HCT-15 = tested on: HCT-15
786-0 = tested on: 786-0
BT-549 = tested on: BT-549
U-251 = tested on: U-251
HCC 2998 = tested on: HCC 2998
CCRF-CEM = tested on: CCRF-CEM
MOLT-4 = tested on: MOLT-4
LOX IMVI = tested on: LOX IMVI
MDA-MB-435 = tested on: MDA-MB-435
DU-145 = tested on: DU-145
HT-29 = tested on: HT-29
HL-60 = tested on: HL-60
OVCAR-4 = tested on: OVCAR-4
HCT-116 = tested on: HCT-116
NCI-H226 = tested on: NCI-H226
SK-MEL-5 = tested on: SK-MEL-5
ACHN = tested on: ACHN
NCI/ADR-RES = tested on: NCI/ADR-RES
RPMI-8226 = tested on: RPMI-8226
SK-MEL-28 = tested on: SK-MEL-28
Hs-578T = tested on: Hs-578T
SW-620 = tested on: SW-620
KM12 = tested on: KM12
OVCAR-3 = tested on: OVCAR-3
SK-MEL-2 = tested on: SK-MEL-2
HOP-92 = tested on: HOP-92
SN12C = tested on: SN12C
OVCAR-5 = tested on: OVCAR-5
K562 = tested on: K562
HOP-62 = tested on: HOP-62
SF-539 = tested on: SF-539
SNB-19 = tested on: SNB-19
M14 = tested on: M14
UACC-62 = tested on: UACC-62
SK-OV-3 = tested on: SK-OV-3
MDA-N = tested on: MDA-N
T47D = tested on: T47D

O=C1C2=Nc3ccccc3C(O)(C(=O)O)N2c2ccccc21 (configuration not stated)
GI50 (SF-295): 17.2 µM (inactive)
GI50 (SNB-75): 27.2 µM (inactive)
GI50 (PC-3): 6.61 µM (inactive)
GI50 (IGROV-1): 37.7 µM (inactive)
GI50 (Malme-3M): 15 µM (inactive)
GI50 (A498): 29.5 µM (inactive)
GI50 (NCI-H23): 24.1 µM (inactive)
GI50 (UO-31): 12.5 µM (inactive)
GI50 (SR): 14.6 µM (inactive)
GI50 (NCI-H460): 12.2 µM (inactive)
GI50 (SF-268): 18.2 µM (inactive)
GI50 (RXF 393): 40 µM (inactive)
GI50 (UACC-257): 10.7 µM (inactive)
GI50 (TK-10): 81.7 µM (inactive)
GI50 (EKVX): 60.7 µM (inactive)
GI50 (OVCAR-8): 17.5 µM (inactive)
GI50 (MDA-MB-231): 17.2 µM (inactive)
GI50 (CAKI-1): 14.3 µM (inactive)
GI50 (A549): 7.66 µM (inactive)
GI50 (MCF7): 19.9 µM (inactive)
GI50 (COLO 205): 16.4 µM (inactive)
GI50 (NCI-H522): 17.6 µM (inactive)
GI50 (HCT-15): 15.2 µM
GI50 (786-0): 36.5 µM (inactive)
GI50 (BT-549): > 10 µM (inactive)
GI50 (U-251): 19.9 µM (inactive)
GI50 (HCC 2998): 45.2 µM (inactive)
GI50 (CCRF-CEM): 21.9 µM (inactive)
GI50 (MOLT-4): 17.6 µM (inactive)
GI50 (LOX IMVI): 20.1 µM (inactive)
GI50 (MDA-MB-435): 2.26 µM (inactive)
GI50 (DU-145): 16.3 µM (inactive)
GI50 (HT-29): 21.2 µM (inactive)
GI50 (HL-60): 10.7 µM (inactive)
GI50 (OVCAR-4): 14.3 µM (inactive)
GI50 (HCT-116): 20 µM (inactive)
GI50 (NCI-H226): > 100 µM (inactive)
GI50 (SK-MEL-5): 14 µM (inactive)
GI50 (ACHN): 26.5 µM (inactive)
GI50 (NCI/ADR-RES): 29.6 µM (inactive)
GI50 (RPMI-8226): 6.68 µM (inactive)
GI50 (SK-MEL-28): 43.9 µM (inactive)
GI50 (Hs-578T): 27.7 µM (inactive)
GI50 (SW-620): 19.4 µM (inactive)
GI50 (KM12): 26.9 µM (inactive)
GI50 (OVCAR-3): 14 µM (inactive)
GI50 (SK-MEL-2): 13.3 µM (inactive)
GI50 (HOP-92): 32.7 µM (inactive)
GI50 (SN12C): 28.8 µM (inactive)
GI50 (OVCAR-5): 34.8 µM (inactive)
GI50 (K562): 20.8 µM (inactive)
GI50 (HOP-62): 25.4 µM (inactive)
GI50 (SF-539): 26.4 µM (inactive)

O=c1c(-c2ccccc2)c(SCCO)n(-c2ccccc2)c(=S)n1-c1ccccc1
GI50 (SF-295): > 100 µM (inactive)
GI50 (SNB-75): 39.6 µM (inactive)
GI50 (PC-3): > 100 µM (inactive)
GI50 (SNB-19): > 100 µM (inactive)
GI50 (IGROV-1): > 100 µM (inactive)
GI50 (M14): > 100 µM (inactive)
GI50 (Malme-3M): > 100 µM (inactive)
GI50 (NCI-H23): > 100 µM (inactive)
GI50 (UO-31): > 100 µM (inactive)
GI50 (SR): > 100 µM (inactive)
GI50 (NCI-H460): > 100 µM (inactive)
GI50 (SF-268): > 100 µM (inactive)
GI50 (UACC-257): > 100 µM (inactive)
GI50 (TK-10): > 100 µM (inactive)
GI50 (EKVX): > 100 µM (inactive)
GI50 (OVCAR-8): > 100 µM (inactive)
GI50 (CAKI-1): > 100 µM (inactive)
GI50 (A549): > 100 µM (inactive)
GI50 (MCF7): > 100 µM (inactive)
GI50 (COLO 205): > 100 µM (inactive)
GI50 (NCI-H522): > 100 µM (inactive)
GI50 (HCT-15): > 100 µM
GI50 (786-0): > 100 µM (inactive)
GI50 (BT-549): > 100 µM (inactive)
GI50 (U-251): > 100 µM (inactive)
GI50 (CCRF-CEM): > 100 µM (inactive)
GI50 (MOLT-4): > 100 µM (inactive)
GI50 (LOX IMVI): > 100 µM (inactive)
GI50 (MDA-MB-435): > 100 µM (inactive)
GI50 (DU-145): > 100 µM (inactive)
GI50 (HT-29): > 100 µM (inactive)
GI50 (HL-60): > 100 µM (inactive)
GI50 (OVCAR-4): > 100 µM (inactive)
GI50 (HCT-116): > 100 µM (inactive)
GI50 (UACC-62): 39.7 µM (inactive)
GI50 (NCI-H226): > 100 µM (inactive)
GI50 (SK-MEL-5): > 100 µM (inactive)
GI50 (ACHN): > 100 µM (inactive)
GI50 (NCI/ADR-RES): > 100 µM (inactive)
GI50 (RPMI-8226): > 100 µM (inactive)
GI50 (SK-MEL-28): > 100 µM (inactive)
GI50 (Hs-578T): 99.5 µM (inactive)
GI50 (SK-OV-3): > 100 µM (inactive)
GI50 (SW-620): > 100 µM (inactive)
GI50 (MDA-N): > 100 µM (inactive)
GI50 (KM12): > 100 µM (inactive)
GI50 (OVCAR-3): > 100 µM (inactive)
GI50 (SK-MEL-2): > 100 µM (inactive)
GI50 (SN12C): > 100 µM (inactive)
GI50 (OVCAR-5): > 100 µM (inactive)
GI50 (K562): > 100 µM (inactive)
GI50 (HOP-62): > 100 µM (inactive)

COc1ccc(NC(C)=O)cc1N1C(=O)/C(=C\c2cccc(Oc3ccccc3)c2)S(=O)(=O)C1c1ccccc1 (configuration not stated)
GI50 (SF-295): 53.1 µM (inactive)
GI50 (SNB-75): 19 µM (inactive)
GI50 (PC-3): 36.6 µM (inactive)
GI50 (SNB-19): 46.1 µM (inactive)
GI50 (IGROV-1): 34.5 µM (inactive)
GI50 (M14): 30.1 µM (inactive)
GI50 (Malme-3M): 70.1 µM (inactive)
GI50 (A498): > 100 µM (inactive)
GI50 (NCI-H23): 60.3 µM (inactive)
GI50 (UO-31): 18.9 µM (inactive)
GI50 (SR): 4.21 µM (inactive)
GI50 (T47D): 18.5 µM (inactive)
GI50 (NCI-H460): 74.1 µM (inactive)
GI50 (RXF 393): 54.8 µM (inactive)
GI50 (UACC-257): 49.3 µM (inactive)
GI50 (TK-10): > 100 µM (inactive)
GI50 (EKVX): 41.6 µM (inactive)
GI50 (OVCAR-8): 35.1 µM (inactive)
GI50 (MDA-MB-231): 49 µM (inactive)
GI50 (CAKI-1): 16.6 µM (inactive)
GI50 (A549): 62.8 µM (inactive)
GI50 (MCF7): 25.9 µM (inactive)
GI50 (COLO 205): 58.2 µM (inactive)
GI50 (NCI-H522): 41.1 µM (inactive)
GI50 (HCT-15): 39 µM
GI50 (786-0): 32.2 µM (inactive)
GI50 (BT-549): 53.3 µM (inactive)
GI50 (U-251): 32.7 µM (inactive)
GI50 (HCC 2998): > 100 µM (inactive)
GI50 (CCRF-CEM): 16.1 µM (inactive)
GI50 (MOLT-4): 16.9 µM (inactive)
GI50 (LOX IMVI): 26.9 µM (inactive)
GI50 (MDA-MB-435): 33.8 µM (inactive)
GI50 (DU-145): 39 µM (inactive)
GI50 (HT-29): 18.7 µM (inactive)
GI50 (HL-60): 20.4 µM (inactive)
GI50 (OVCAR-4): 16.1 µM (inactive)
GI50 (HCT-116): 17.4 µM (inactive)
GI50 (UACC-62): 58.7 µM (inactive)
GI50 (NCI-H226): > 100 µM (inactive)
GI50 (SK-MEL-5): 35.3 µM (inactive)
GI50 (ACHN): 39.4 µM (inactive)
GI50 (NCI/ADR-RES): 27.9 µM (inactive)
GI50 (RPMI-8226): 22.3 µM (inactive)
GI50 (SK-MEL-28): 43.1 µM (inactive)
GI50 (SK-OV-3): > 100 µM (inactive)
GI50 (SW-620): 28.4 µM (inactive)
GI50 (MDA-N): 21 µM (inactive)
GI50 (KM12): 59.2 µM (inactive)
GI50 (OVCAR-3): 28.5 µM (inactive)
GI50 (SK-MEL-2): 69.5 µM (inactive)
GI50 (HOP-92): 25 µM (inactive)
GI50 (SN12C): 24.2 µM (inactive)
GI50 (OVCAR-5): > 100 µM (inactive)
GI50 (K562): 22.8 µM (inactive)
GI50 (HOP-62): 71.6 µM (inactive)
GI50 (SF-539): 20.7 µM (inactive)

From ChEMBL document CHEMBL1201862, “PubChem BioAssay data set” (2004)
